Drawing on US9045490B2, “Use of parthenolide derivatives as antileukemic and cytotoxic agents” (University of Kentucky, priority 2003, dated 2015), this text covers Antileukemic activity for 29 compounds.

The subject of one test is primary acute myelogenous leukemia (AML) cells. As to the kind of experiment: Assay for antileukemic activity (Annexin V/7-AAD apoptosis analysis by flow cytometry). The class given is cell-based. The settings on record: 2.5 μM, 24 hours of culture. The procedure:
For apoptosis analysis, one million primary acute myelogenous leukemia (AML) cells were washed with cold PBS and resuspended in 200 microliters of Annexin binding buffer (10 mM HEPES/NaOH pH 7.4; 140 mM NaCl; 2.5 mM CaCl2). Annexin V-FITC (Pharmingen) and 0.25 mg/mL 7-AAD (7-aminoactinomycin D, Molecular Probes, CA) were added and the tubes were incubated at room temperature in the dark for 15 minutes. Cells were then diluted with 200 microliters of Annexin binding buffer and analyzed immediately by flow cytometry. Viable cells were identified as failing to label with Annexin V or 7-AAD. Cells beginning to die label with Annexin V, and as membrane integrity is lost, will also label with 7-AAD. […] Data are normalized to untreated control specimens. The data are in Table 1 for aminoparthenolide derivatives and Table 2 for the salts of some aminoparthenolides.
A general note: Flow cytometry measures light scatter and fluorescence of single cells or particles in a stream.
As for `C/C1=C\CC[C@@]2(C)O[C@H]2[C@H]2OC(=O)[C@H](CN3CCCCC3)[C@@H]2CC1` [PipPT, 11S,11,13-Dihydro,13-(piperidin-1-yl)parthenolide], the Antileukemic activity was 2.5 μM, 71%.

Still in this test, the particulars now being: 5 μM, 24 hours of culture.
In the case of “11S,11,13-Dihydro,13-(pyrrolidin-1-yl)parthenolide [PyrPT]”, the Antileukemic activity is recorded as 5 μM, 23%.

Turning to `C/C1=C\CC[C@@]2(C)O[C@H]2[C@H]2OC(=O)[C@H](CN3CCCCC3)[C@@H]2CC1` [PipPT, 11S,11,13-Dihydro,13-(piperidin-1-yl)parthenolide], the Antileukemic activity entry was “v5 μM, 91%”.

The test is the same for the next values; noted with them: 10 μM, 24 hours of culture, normalized to untreated control.
Consider “11S,11,13-Dihydro,13-(4-methylpiperidin-1-yl)parthenolide [Compound 4MePipPT]”, for which the Antileukemic activity is reported as 10 μM, 83%.

Regarding “11S,11,13-Dihydro,13-(pyrrolidin-1-yl)parthenolide [PyrPT]”, the Antileukemic activity is 10 μM, 85%.

Take “11S,11,13-Dihydro,13-(tert-butylamino)parthenolide [tBAPT]”: the Antileukemic activity is on record as 10 μM, 20%.

In the case of “11S,11,13-Dihydro,13-diethylaminoparthenolide [DEAPT]”, the Antileukemic activity is reported as 10 μM, 60%.

Consider “11S,11,13-Dihydro,13-methyl pentyl aminoparthenolide”, for which the Antileukemic activity is recorded as 10 μM, 45%.

“11S,11,13-Dihydro,13-methylbutyl aminoparthenolide”: the Antileukemic activity was 10 μM, 68%.

With “11S,11,13-dihydro,13-(piperidin-1-yl)parthenolide hydrochloride”, the Antileukemic activity is on record as 10 μM, 88%.

With “11S, 11,13-Dihydro,13-(4-methylpiperidin-1-yl)parthenolide hydrochloride”, the Antileukemic activity was 10 μM, 62%.

Take `C=C1CCC2C(CN(CC)CC)C(=O)OC2C2C(=C)CCC12` (centres unmarked) [11H, 13-(N,N-Diethylamino)-dehydrocostuslactone]: the Antileukemic activity is given as 10 μM, 5%.

Turning to `C=C1CCC2C(CN(C)C)C(=O)OC2C2C(=C)CCC12` (centres unmarked) [11H, 13-(N,N-Dimethylamino)-dehydrocostuslactone], the Antileukemic activity is on record as 10 μM,12%.

Take `C=C1CCC2C(CN(C)CCCC)C(=O)OC2C2C(=C)CCC12` (centres unmarked) [11H, 13-(N-Butyl-N-methylamino)-dehydrocostuslactone]: the Antileukemic activity is reported as 10 μM, 8%.

With `C=CCN(CC=C)CC1C(=O)OC2C1CCC(=C)C1CCC(=C)C12` (centres unmarked) [11H, 13-(N-Diallyl)-dehydrocostuslactone], the Antileukemic activity was 10 μM, 2%.

With `C=C1CCC2C(CN(CC)Cc3ccccc3)C(=O)OC2C2C(=C)CCC12` (centres unmarked) [11H, 13-(N-Ethyl-N-benzyl)-dehydrocostuslactone], the Antileukemic activity is 10 μM, 13%.

Consider `C=C1CCC2C(CN(C)CCCCC)C(=O)OC2C2C(=C)CCC12` (centres unmarked) [11H, 13-(N-Methyl-N-pentylamino)-dehydrocostuslactone], for which the Antileukemic activity is 10 μM, 0%.

As for `C=C1CCC2C(CN(C)CCC)C(=O)OC2C2C(=C)CCC12` (centres unmarked) [11H, 13-(N-Methyl-N-propylamino)-dehydrocostuslactone], the Antileukemic activity is 10 μM, 1%.

As for `C=C1CCC2C(CN3CCOCC3)C(=O)OC2C2C(=C)CCC12` (centres unmarked) [11H, 13-(N-Morpholine)-dehydrocostuslactone], the Antileukemic activity is given as 10 μM, 10%.

As for `C=C1CCC2C(CN3CCCCC3)C(=O)OC2C2C(=C)CCC12` (centres unmarked) [11H, 13-(N-Piperidine)-dehydrocostuslactone], the Antileukemic activity is given as 10 μM, 14%.

As to `C=C1CCC2C(CNCCC)C(=O)OC2C2C(=C)CCC12` (centres unmarked) [11H, 13-(N-Propylamino)-dehydrocostuslactone], the Antileukemic activity is recorded as 10 μM, 24%.

For the compound `C=C1CCC2C(CN3CCCC3)C(=O)OC2C2C(=C)CCC12` (centres unmarked) [11H, 13-(N-Pyrrolidine)-dehydrocostuslactone], the Antileukemic activity is on record as 10 μM, 20%.

Turning to `CC1=CCCC2(C)OC2C2OC(=O)C(CNC3CC3)C2CC1` (centres unmarked) [11S,11,13-Dihydro,13-cyclopropylaminoparthenolide], the Antileukemic activity is recorded as 10 μM, −6%.

With `CCNCC1C(=O)OC2C1CCC(C)=CCCC1(C)OC21` (centres unmarked) [11S,11,13-Dihydro,13-ethylaminoparthenolide], the Antileukemic activity is given as 10 μM, 2%.

Consider `CNC[C@H]1C(=O)O[C@H]2[C@H]1CC/C(C)=C/CC[C@@]1(C)O[C@@H]21` [11S,11,13-Dihydro,13-methylaminoparthenolide], for which the Antileukemic activity is recorded as 10 μM, 4%.

In the case of `C#CCNCC1C(=O)OC2C1CCC(C)=CCCC1(C)OC21` (centres unmarked) [11S,11,13-Dihydro,13-propargylaminoparthenolide], the Antileukemic activity is given as 10 μM, 7%.

On to `CC1=CCCC2(C)OC2C2OC(=O)C(CN3CCCC3)C2CC1.Cl` (centres unmarked) [11S, 11,13-Dihydro,13-(pyrrolidin-1-yl)parthenolide hydrochloride], for which the Antileukemic activity is given as 10 μM, 85%.

As to `C/C1=C\CC[C@@]2(C)O[C@H]2[C@H]2OC(=O)[C@H](CN3CCN(C)CC3)[C@@H]2CC1` [Compound 4MePizPT, 11S,11,13-Dihydro,13-(4-methylpiperazin-1-yl)parthenolide], the Antileukemic activity is on record as 10 μM, 7%.

Regarding `CC1=CCCC2(C)OC2C2OC(=O)C(CN3CCCCCCC3)C2CC1` (centres unmarked) [HeptaMePipt, 11S,11,13-Dihydro,13-(heptamethyleneimin-1-yl)parthenolide], the Antileukemic activity is 10 μM, 10%.

For `CC1=CCCC2(C)OC2C2OC(=O)C(CN3CCCCCC3)C2CC1` (centres unmarked) [HomoPipPT, 11S,11,13-Dihydro,13-(homopiperidin-1-yl)parthenolide], the Antileukemic activity is recorded as 10 μM, 40%.

The test is the same for the next values; noted with them: 20 μM, 24 hours of culture.
For the compound “11S,11,13-Dihydro,13-(morpholin-1-yl)parthenolide [MorPT]”, the Antileukemic activity is on record as 20 μM, 20%.

Regarding “11S,11,13-Dihydro,13-(pyrrolidin-1-yl)parthenolide [PyrPT]”, the Antileukemic activity is listed as 20 μM, 95%.
